Experimental findings from PubChem BioAssay (NCI) are described below.

Some test systems named below: MALME-3M melanoma; SF-539 CNS; NCI-H23 lung; HCT-116 colon; MDA-MB-435; UO-31 renal; RXF 393 renal; SNB-19 CNS; CAKI-1 renal; U251 CNS; HL-60(TB) leukemia; EKVX NSCLC; NCI-H522 lung; MDA-MB-231 breast; SNB-75 CNS; UACC-62 melanoma; MDA-N; DU-145 prostate; SK-MEL-2 melanoma.
Common to all, as to test: NCI tumour cell line growth inhibition, 48 h

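A five-concentration, 48-hour dose response in 96-well plates underlies each endpoint, interpolated linearly between surrounding concentrations. TGI denotes the concentration required for complete inhibition of growth.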

`O=C(NNc1ccnc2cc(Cl)ccc12)/C(=C\c1ccccc1Cl)NC(=O)c1ccccc1`: the TGI in the test with MALME-3M melanoma is over 100 µM; with SF-539 CNS, 72.7 µM; with NCI-H23 lung it was over 100 µM; with HCT-116 colon, over 100 µM; in the test with MDA-MB-435, over 100 µM; with UO-31 renal, over 100 µM. Also, the TGI was over 100 µM in the test with RXF 393 renal; over 100 µM in the test on SNB-19 CNS; over 100 µM with CAKI-1 renal; 34 µM in the test with U251 CNS; 67.8 µM in the test on HL-60(TB) leukemia; over 100 µM in the test on EKVX NSCLC. The TGI in the test on NCI-H522 lung is 39.9 µM; in the test on MDA-MB-231 breast, over 100 µM; in the test on SNB-75 CNS, over 100 µM; in the test on UACC-62 melanoma, 70.9 µM; in the test on MDA-N, over 100 µM; in the test with DU-145 prostate, over 100 µM. Also, the TGI in the test on SK-MEL-2 melanoma is 46.1 µM.
As for `O=C1C(c2c(O)[nH]c3ccc(S(=O)(=O)O)cc23)=Nc2ccc(Br)cc21`, the TGI in the test with MALME-3M melanoma, in the test with NCI-H23 lung, in the test on HCT-116 colon, in the test on MDA-MB-435, in the test with UO-31 renal and in the test on RXF 393 renal was over 100 µM each time. The TGI with SNB-19 CNS, in the test on CAKI-1 renal, in the test with U251 CNS, in the test on HL-60(TB) leukemia, in the test with EKVX NSCLC and in the test with NCI-H522 lung was over 100 µM each time. Besides, the TGI in the test on MDA-MB-231 breast, in the test on SNB-75 CNS, in the test with UACC-62 melanoma, in the test with MDA-N, in the test with DU-145 prostate and in the test on SK-MEL-2 melanoma was over 100 µM in each case.
With `Cc1ccc2nc(-c3ccc(-n4c(C)nc(=O)c(-c5ccc(F)cc5)c4C)cc3)sc2c1`, the TGI with MALME-3M melanoma stood at 32.5 µM; with NCI-H23 lung it was 32.2 µM; with HCT-116 colon, 29.4 µM; in the test with MDA-MB-435 it was 32.2 µM; in the test with UO-31 renal, 30.6 µM; with RXF 393 renal it was 23.2 µM. Moreover, the TGI was determined as 29.5 µM in the test on SNB-19 CNS; 35.1 µM with CAKI-1 renal; 30.7 µM with U251 CNS; 34.2 µM in the test with HL-60(TB) leukemia; 30 µM in the test with EKVX NSCLC; 35.2 µM in the test with NCI-H522 lung. In addition, the TGI with MDA-MB-231 breast stood at 28.8 µM; in the test on SNB-75 CNS it was 27.4 µM; in the test with MDA-N it was 32.2 µM; in the test with DU-145 prostate it was 30 µM; in the test with SK-MEL-2 melanoma, 35.4 µM.
In the case of `Fc1ccc(OCc2nc3cc(C(F)(F)F)ccc3nc2-c2ccccc2)cc1`, the TGI in the test on MALME-3M melanoma, in the test with SF-539 CNS, with NCI-H23 lung, in the test with HCT-116 colon, with MDA-MB-435 and in the test with UO-31 renal was over 100 µM throughout. The TGI is over 100 µM with RXF 393 renal; over 100 µM in the test on SNB-19 CNS; over 100 µM in the test on CAKI-1 renal; over 100 µM with U251 CNS; over 89.1 µM in the test with HL-60(TB) leukemia; over 100 µM with EKVX NSCLC. In addition, the TGI in the test on NCI-H522 lung, in the test with MDA-MB-231 breast, in the test with SNB-75 CNS, with UACC-62 melanoma, in the test on MDA-N and in the test with DU-145 prostate was over 100 µM in each case. Also, in the test on SK-MEL-2 melanoma, the TGI was over 100 µM.
For `ClCCN1CCOC1=Nc1ccc2c(c1)CCCC2`, the TGI in the test on MALME-3M melanoma is 20.8 µM; with SF-539 CNS, 17.9 µM; in the test on NCI-H23 lung, 26.7 µM; in the test on HCT-116 colon, 26.8 µM; in the test on MDA-MB-435, 29.2 µM; with UO-31 renal it was 30.3 µM. Besides, the TGI worked out at 22.6 µM in the test with RXF 393 renal; 17.8 µM with SNB-19 CNS; 53.8 µM in the test on CAKI-1 renal; 28.6 µM in the test on U251 CNS; 17.1 µM with HL-60(TB) leukemia; 42.3 µM in the test with EKVX NSCLC. The TGI in the test on NCI-H522 lung worked out at 54.9 µM; in the test on MDA-MB-231 breast it was 31.7 µM; in the test on SNB-75 CNS it was 28.7 µM; with UACC-62 melanoma, 27.9 µM; in the test with MDA-N, 28.3 µM; in the test with DU-145 prostate it was 48.4 µM. In the test on SK-MEL-2 melanoma, this molecule returned a TGI of 38.1 µM.
Turning to `COC(=O)Nc1nc2ccc(S(=O)(=O)n3nnc4ccccc43)cc2[nH]1`, the TGI in the test with MALME-3M melanoma was over 100 µM; with SF-539 CNS, 24.4 µM; in the test with NCI-H23 lung, over 100 µM; with HCT-116 colon, over 100 µM; in the test on MDA-MB-435 it was over 100 µM; in the test with UO-31 renal, over 100 µM. Besides, the TGI with RXF 393 renal is 36.1 µM; with SNB-19 CNS, over 100 µM; with CAKI-1 renal, over 100 µM; in the test on U251 CNS it was over 100 µM; in the test on HL-60(TB) leukemia it was over 100 µM; in the test with EKVX NSCLC it was over 100 µM. Moreover, the TGI with NCI-H522 lung was over 100 µM; in the test with MDA-MB-231 breast, over 100 µM; in the test with SNB-75 CNS, 21.4 µM; in the test with UACC-62 melanoma it was over 100 µM; in the test on MDA-N, over 100 µM; in the test with DU-145 prostate, over 100 µM. This molecule also had a TGI with SK-MEL-2 melanoma of over 100 µM.
In the case of `CCCCCC(=O)Nc1nc[nH]c1C(N)=O`, the TGI in the test on MALME-3M melanoma, with SF-539 CNS, with NCI-H23 lung, in the test on HCT-116 colon, in the test on MDA-MB-435 and in the test with UO-31 renal was over 100 µM in each case. The TGI in the test on RXF 393 renal, in the test on SNB-19 CNS, in the test on CAKI-1 renal, with U251 CNS, in the test with HL-60(TB) leukemia and in the test with EKVX NSCLC was over 100 µM in each case. Further, the TGI in the test with NCI-H522 lung, in the test on MDA-MB-231 breast, in the test on SNB-75 CNS, with UACC-62 melanoma, in the test with MDA-N and in the test with DU-145 prostate was over 100 µM in each case. This molecule also gave a TGI in the test on SK-MEL-2 melanoma of over 100 µM.
